Source: US20100029689A1, “PHOSPHODIESTERASE 4 INHIBITORS” (MEMORY PHARMACEUTICALS CORPORATION, priority 2008, published 2010)

Legend:
hPDE-4D6 = molecular target: T1, hPDE-4D6 (Homo sapiens, UniProt Q08499); test: In vitro measurement of type 4 phosphodiesterase inhibition activity (hPDE-4D6, [3H]cAMP/alumina column assay); format: biochemical; conditions: recombinant hPDE-4D6 from Sf9 cell lysate, 3 uM cAMP, 12 min, room temperature; read-out: PDE4D6 IC50
T1 construct: made in house; host or cells: Sf9 insect cells (baculovirus)
Protocol: Human PDE4 was obtained from baculovirus-infected Sf9 cells that expressed the recombinant enzyme. The cDNA encoding hPDE-4D6 was subcloned into a baculovirus vector.
Insect cells (Sf9) were infected with the baculovirus and cells were cultured until protein was expressed. The baculovirus-infected cells were lysed and the lysate was used as source of hPDE-4D6 enzyme. The enzyme was partially purified using a DEAE ion exchange chromatography. This procedure can be repeated using cDNA encoding other PDE-4 enzymes.
Type 4 phosphodiesterases convert cyclic adenosine monophosphate (cAMP) to 5′-adenosine monophosphate (5′-AMP). Nucleotidase converts 5′-AMP to adenosine. Therefore the combined activity of PDE4 and nucleotidase converts cAMP to adenosine. Adenosine is readily separated from cAMP by neutral alumina columns. Phosphodiesterase inhibitors block the conversion of cAMP to adenosine in this assay; consequently, PDE4 inhibitors cause a decrease in adenosine.
Cell lysates (40 ul) expressing hPDE-4D6 were combined with 50 ul of assay mix and 10 μl of inhibitors and incubated for 12 min at room temperature. Final concentrations of assay components were: 0.4 ug enzyme, 10 mM Tris-HCl (pH 7.5), 1 mM MgCl2, 3 uM cAMP, 0.002 U 5′-nucleotidase, and 3×10^4 cpm of [3H]cAMP. The reaction was stopped by adding 100 μl of boiling 5mN HCl. An aliquot of 75 μl of reaction mixture was transferred from each well to alumina columns (Multiplate; Millipore). Labeled adenosine was eluted into an OptiPlate by spinning at 2000 rpm for 2 min; 150 μl per well of scintillation fluid was added to the OptiPlate. The plate was sealed, shaken for about 30 min, and cpm of [^3H]adenosine was determined using a Wallac Triflux®.
All test compounds are dissolved in 100% DMSO and diluted into the assay such that the final concentration of DMSO is 0.1%.
A decrease in adenosine concentration is indicative of inhibition of PDE activity. […] Nonlinear regression software (Assay Explorer@) was used to estimate pIC50 values.

rats [1] = test: Passive avoidance in rats, in vivo test for learning and memory; set-up: species or system rat; conditions: male Sprague-Dawley rats, 0.1 mg/kg, 24 hours after electric shock, compared to vehicle (p<0.001)
Protocol: The test was performed as previously described (Zhang, H.-T., Crissman, A. M., Dorairaj, N. R., Chandler, L. J., and O'Donnell, J. M., Neuropsychopharmacology, 2000, 23, 198-204.). The apparatus (Model E10-16SC, Coulboum Instruments, Allentown, Pa.) consisted of a two-compartment chamber with an illuminated compartment connected to a darkened compartment by a guillotine door. The floor of the darkened compartment consisted of stainless steel rods through which an electric foot-shock could be delivered from a constant current source. All experimental groups were first habituated to the apparatus the day before the start of the experiment. During the training, the rat (Male Sprague-Dawley (Harlan) weighing 250 to 350 g) was placed in the illuminated compartment facing away from the closed guillotine door for 1 minute before the door was raised. The latency for entering the darkened compartment was recorded. After the rat entered the darkened compartment, the door was closed and a 0.5 mA electric shock was administered for 3 seconds. […] The latency for entering the darkened compartment was recorded for up to 180 seconds, at which time the trial was terminated.
(§1) All data were analyzed by analyses of variance (ANOVA); individual comparisons were made using Kewman-Keuls tests. […]

rats [2] = test: Radial arm maze task in rats, in vivo test for learning and memory; set-up: species or system rat; conditions: male Sprague-Dawley rats, 0.1 mg/kg, i.p., compared to control (p<0.01)
Protocol: The test was performed as previously described (Zhang, H.-T., Crissman, A. M., Dorairaj, N. R., Chandler, L. J., and O'Donnell, J. M., Neuropsychopharmacology, 2000, 23, 198-204.). Five days after initial housing, rats (male Sprague-Dawley (Harlan) weighing 250 to 350 g) were placed in the eight-arm radial maze (each arm was 60×10×12 cm high; the maze was elevated 70 cm above the floor) for acclimation for two days. Rats were then placed individually in the center of the maze for 5 minutes with food pellets placed close to the food wells, and then, the next day, in the wells at the end of the arms; 2 sessions a day were conducted. Next, four randomly selected arms were then baited with one pellet of food each. The rat was restricted to the center platform (26 cm in diameter) for 15 seconds and then allowed to move freely throughout the maze until it collected all pellets of food or 10 minutes passed, whichever came first. Four parameters were recorded: 1) working memory errors, i.e., entries into baited arms that had already been visited during the same trial; 2) reference memory errors, i.e., entries into unbaited arms; 3) total arm entries; and 4) the test duration (seconds), i.e., the time spent in the collection of all the pellets in the maze. […]
as §1

T1 sequence (Q08499 1-518 isoform Q08499-8): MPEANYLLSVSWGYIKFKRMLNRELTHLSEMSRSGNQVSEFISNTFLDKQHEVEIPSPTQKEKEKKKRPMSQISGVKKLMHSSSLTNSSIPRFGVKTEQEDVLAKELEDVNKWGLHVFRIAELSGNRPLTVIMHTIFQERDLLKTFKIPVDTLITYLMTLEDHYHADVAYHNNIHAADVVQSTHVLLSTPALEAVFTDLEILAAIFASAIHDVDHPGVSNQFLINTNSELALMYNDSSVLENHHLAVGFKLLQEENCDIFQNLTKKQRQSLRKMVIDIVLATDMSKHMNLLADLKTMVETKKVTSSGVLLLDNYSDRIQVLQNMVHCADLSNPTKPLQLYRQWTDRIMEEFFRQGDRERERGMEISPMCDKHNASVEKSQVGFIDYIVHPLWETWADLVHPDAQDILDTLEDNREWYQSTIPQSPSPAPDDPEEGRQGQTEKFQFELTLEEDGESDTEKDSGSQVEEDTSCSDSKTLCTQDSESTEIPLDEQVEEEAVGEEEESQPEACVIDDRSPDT

Row | Compound | IC50 (hPDE-4D6) [nM] | latency for entering the darkened compartment (retention test) (rats [1]) | frequencies of working and reference memory errors (rats [2])
1 | O=C(O)c1ccc(N(Cc2cnco2)c2ccc(OC(F)F)c(OC3CCC3)c2)cc1 [Example 182] | 3.8 | – | –
2 | COc1ccc(N(Cc2cnco2)c2ccc(C(=O)O)cc2)cc1OC1CC1 [Example 189] | 2.3 | – | –
3 | CCOc1cc(N(Cc2cocn2)c2ccc(C(=O)O)cc2)ccc1OC(F)F [Example 190] | 20 | – | –
4 | CCOc1cc(N(Cc2cnco2)c2ccc(C(=O)O)cc2)ccc1OC(F)(F)F [Example 217] | 12 | – | –
5 | COc1ccc(N(Cc2cncnc2)c2cccc(C(=O)O)c2)cc1OC1CC1 [Example 218] | 1.08 | – | –
6 | CCOc1cc(N(Cc2cnc(C)s2)c2ccc(C(=O)O)cc2)ccc1OC(F)F [Example 225] | 4.38 | – | –
7 | COc1ccc(N(Cc2cnco2)c2ccc(C(=O)O)cc2)cc1OC(F)(F)F [Example 232] | 6.94 | – | –
8 | CCOc1cc(N(Cc2cnns2)c2ccc(C(=O)O)cc2)ccc1OC(F)F [Example 281] | 0.16 | – | –
9 | CCOc1cc(Nc2ccc(C(=O)O)cc2)ccc1OC(F)F [Example 294] | 34.9 | – | –
10 | O=C(O)c1ccc(Nc2ccc(OC(F)F)c(OC(F)F)c2)cc1 [Example 295] | 108 | – | –
11 | C[C@]12N[C@H](Cc3ccccc31)c1ccccc12 [MK-801] | – | markedly reduced this latency | increased the frequencies of both working and reference memory errors
